Consider one molecule from patent US8603527B2, “Pharmaceutical formulations of a substituted diaminopurine” (Signal Pharmaceuticals, LLC, priority 2010, dated 2013).

Molecules are shown by their SMILES. Like-named read-outs stand apart in the source and are kept apart here.

Series [1] can be described thus: Toxicokinetics in pregnant female rats. Format: in vivo, rat. As to conditions: for concentration at 2 h / AUC / Cmax / Kp: female, rat; for concentration at 2 h / Kp: oral; for concentration at 2 h / Kp / Fetus concentration (pooled fetal blood samples): rats; for concentration at 2 h / Fetus concentration (pooled fetal blood samples): 2 hours after dosing on Gestation Day 17; for AUC / Cmax: pregnant rats; for Kp: fetal plasma / maternal plasma, Gestation Day 17, calculated from individual ratios, read-out: Fetal:Maternal Plasma Ratio. Here is the method: Compound I was readily absorbed in pregnant rats following daily oral administration of Compound I for 11 days (GD 6-16). Exposures for Compound I increased in an approximately dose-proportional manner from 25 to 100 mg/kg/day.

The subject of another series is healthy subjects. Nature of the series: Safety in the gender, age and food study in healthy subjects. The format is in vivo, human. As to conditions: 100 mg single oral dose, all age groups, each gender, fasting and fed. Here is the method: Group 1 (Healthy Females) and Group 3 (Elderly Males and Females): Subjects were screened within 21 days of dosing and eligible subjects were admitted to the study center on Day −1 (i.e., at least 12 hours predose) for baseline assessments and confirmation of eligibility. A single oral dose of 100 mg Compound I was administered on Day 1 following an overnight fast of at least 8 hours. Subjects were discharged from the study center the morning of Day 3 upon completion of study procedures and returned to the study center for PK blood draws and safety assessments on Days 4, 5, and 6. The end-of-study (EOS) evaluation also occurred on Day 6. Subjects returned to the study center for a follow-up visit between 7 and 10 days from EOS. Serial blood samples were collected predose and up to 120 hours postdose for the determination of plasma Compound I concentrations. Safety was monitored throughout the study; safety evaluations included AE reporting, physical examinations, vital sign measurements, ECGs, and clinical laboratory safety tests. All AEs and concomitant medications were assessed and recorded throughout the study from the time the ICF was signed through follow-up.
Group 2 (Healthy Males): Subjects in Group 2 participated in this portion of the study to evaluate food effect using a randomized, open-label, single dose, 2-period (Period 1 and Period 2), 2-sequence, 2-way crossover design. […]

Setting [2] is: CD [Crl:CD(SD)], plasma, 25 mg/kg/day, 25 mg/kg/d oral, Gestation Day 16.
Where [3] appears, read: CD [Crl:CD(SD)], plasma, 50 mg/kg/day, 50 mg/kg/d oral, Gestation Day 16.
Setting [4] is: CD [Crl:CD(SD)], plasma, 100 mg/kg/day, 100 mg/kg/d oral, Gestation Day 16.
Setting [5] is: Crl:CD(SD), plasma, 25 mg/kg/day, 25 mg/kg/d oral, Gestation Day 6.
Setting [6] is: Crl:CD(SD), plasma, 50 mg/kg/day, 50 mg/kg/d oral, Gestation Day 6.
Setting [7] is: Crl:CD(SD), plasma, 100 mg/kg/day, 100 mg/kg/d oral, Gestation Day 6.

Consider `O[C@H]1CC[C@H](Nc2ncc3nc(Nc4c(F)cc(F)cc4F)n([C@H]4CCOC4)c3n2)CC1` [Compound I, 4-((9-((3S)-tetrahydro-3-furanyl)-8-((2,4,6-trifluorophenyl)amino)-9H-purin-2-yl)amino)-trans-cyclohexanol], for which the concentration at 2 h in series [1] (CD [Crl:CD(SD)], fetal blood (pooled), 25 mg/kg/day, 25 mg/kg/d, read-out: Fetus concentration (pooled fetal blood samples)) was found to be 897 ng/mL; in series [1] (CD [Crl:CD(SD)], plasma, 25 mg/kg/day, 25 mg/kg/d, read-out: Dam plasma concentration), 1520 ng/mL; in series [1] (CD [Crl:CD(SD)], plasma, 50 mg/kg/day, 50 mg/kg/d, read-out: Dam plasma concentration), 3410 ng/mL; in series [1] (CD [Crl:CD(SD)], plasma, 100 mg/kg/day, 100 mg/kg/d, read-out: Dam plasma concentration) it was 6650 ng/mL. The AUC in series [1] (setting [2]) came out at 19700 ng·h/mL; in series [1] (setting [3]), 42300 ng·h/mL; in series [1] (setting [4]), 96900 ng·h/mL; in series [1] (setting [5]) it was 19500 ng·h/mL; in series [1] (setting [6]), 49500 ng·h/mL; in series [1] (setting [7]) it was 102000 ng·h/mL. Moreover, the Cmax in series [1] (setting [2]) was determined as 1930 ng/mL; in series [1] (setting [3]) it was 4210 ng/mL; in series [1] (setting [4]) it was 8130 ng/mL; in series [1] (setting [5]) it was 2420 ng/mL; in series [1] (setting [6]) it was 3920 ng/mL; in series [1] (setting [7]), 6790 ng/mL. Besides, the Kp in series [1] (Crl:CD(SD), 25 mg/kg/day, 25 mg/kg/d) is 0.59; in series [1] (Crl:CD(SD), 50 mg/kg/day, 50 mg/kg/d) it was 0.61; in series [1] (Crl:CD(SD), 100 mg/kg/day, 100 mg/kg/d), 0.61. For the same molecule, the “maternal AUC as fold of human AUC” value in series [1] (rats at LOEL 25 mg/kg/day vs human 100 mg BID) was around 0.8 fold; in series [1] (rats at LOEL 25 mg/kg/day vs human 200 mg BID), around 0.4 fold. In addition, the “Fetus concentration (pooled fetal blood samples)” value in series [1] (50 mg/kg/d) was 2115 ng/mL; in series [1] (100 mg/kg/d), 4012 ng/mL. In the series with healthy subjects, the tolerability result was “well tolerated”.

What is called AUC is the area under the concentration-time curve, a measure of exposure. Low values mean less exposure, high ones more exposure. As a reminder, the Cmax is the peak of the concentration-time curve.
